Laboratory results published in patent publication US20080181874A1, “CELL COMPOSITION AND METHOD FOR TREATING CANCER” (priority 2007, published 2008).

Key:
[1] = system: viable tumor cells from the right chest wall lesion (mammary carcinoma cells); assay: In vitro drug response of fresh tumor cells (DISC, MTT and redox assays); assay type: cell-based, human; set-up: key to ASSAY RESULT: Sensitive: A cancer cell is said to be sensitive to a drug when the drug inhibits the cell growth or proliferation of the cell to a greater degree than is expected for an appropriate control; Resistant: A cancer cell is said to be sensitive to a drug when the drug inhibits the cell growth or proliferation of the cell to a lesser degree than is expected for an appropriate control; details: for ASSAY RESULT: compared with a database of assays with similar technical characteristics; for ASSAY PREDICTED RESPONSE PROBABILITY: predicted from the assay result; for activity in vitro (in words): summary of the table
Protocol: An unfixed portion of the tumor was further analyzed for response to several drugs. A specimen consisted of 1 piece of yellow, white, and red tissue, obtained from the right chest wall lesion. The piece was soft and sticky in texture, measured 0.8×1.4 cm, and weighed 0.47 gm. The specimen was minced to individual pieces smaller than one mm with surgical scissors and digested for 1.3 hours with collagenase-DNAse. Viable tumor cells were enriched by Ficoll-diatriozate centrifugation. Cytospin slides were prepared, air-dried, and stained with Fast Green/Hamatoxyline-eosin. On this cytology preparation obtained from mechanically-dissociated, enzyme-digested tissue, there was a collection of somewhat pleomorphic tumor cells, consistent with mammary carcinoma cells. Tumor cells were present as loose cell clusters (60% of total tumor cells) and, less commonly, as discohesive single cells (40% of total tumor cells). The tumor cells measured 22-25 microns in diameter and had N/N+C ratios of 0.6-0.8. […] Nucleoli were variably prominent. There were no cells with large clear globular areas or secretory material within the cytoplasm. There was slight cytoplasmic and nuclear molding. Approximately 40% of the enriched tumor cell fraction consisted of normal-appearing connective tissue cells and inflammatory cells.
Cells were plated for testing in 3 different assay endpoints. In the DISC assay, the entire contents of the cell culture were cytocentrifuged onto permanent microscope slides and differentially stained to allow discrimination of normal and neoplastic cells and living and dead cells. […] The MTT assay measures mitochondrial metabolism in the entire cell culture. The redox assay measures total metabolic activity in the entire cell culture, using the Alamar Blue reagent to index the oxygen reduction potential of the culture medium. Because of the very low yield of viable tumor cells, only a small drug panel could be tested. Additionally, some drugs could be tested only in a single assay system.
At the conclusion of the culture period, there was 10% spontaneous attrition in viable tumor cell numbers. Formazan signal in the MTT assay was moderate, reflective of moderate cell metabolism, and allowing for an MTT assay of good quality. Percentage of tumor cells as a percentage of total viable cells at the conclusion of the culture was approximately 85. DISC and MTT assays were in reasonably good agreement. The overall technical quality of the assays was good, marred only by the low yield of tumor cells, which severely limited the scope of testing.
Results were compared with a database of assays which had similar technical characteristics, as the technical characteristics of these assays influence the in vitro results, along with the intrinsic drug resistance of the tumor cells. By controlling for technical characteristics such as spontaneous cell loss, metabolic signal at the conclusion of the culture, and tumor cell clustering, biological correlations are improved.

[2] = system: patients with very advanced stage IV breast cancer; details: components of the vaccine regimen, one patient each
Protocol: Breast cancer patients treated with a composition comprising AKCV-1 cells (administered in conjunction with GM-CSF) were evaluated. […] A small cohort of patients with very advanced stage 1V breast cancer were treated with a vaccine consisting of 10-20×10^6 viable, irradiated tumor cells (AKCV-1) admixed with an equal number of cryopreserved peripheral blood lymphocytes obtained by leukapheresis. Patients were pretreated with low-dose cyclophosphamide 300 mg/m^2 48-72 hrs prior to vaccine and received subcutaneous injections of GM-CSF just prior, and for 8 days after, vaccine inoculation.

Row | Molecule | ASSAY RESULT [1] | ASSAY PREDICTED RESPONSE PROBABILITY [1] | activity in vitro (in words) [1] | best drug in vitro ([1]; ranking among the drugs tested) | Toxicity [2]
1 | COc1cc([C@@H]2c3cc4c(cc3[C@@H](O[C@@H]3O[C@@H]5CO[C@@H](C)O[C@H]5[C@H](O)[C@H]3O)[C@H]3COC(=O)[C@H]23)OCO4)cc(OC)c1O [Etoposide] | Sensitive | 55 | above-average activity |  | 
2 | CC(=O)O[C@H]1C(=O)[C@@]2(C)[C@H]([C@H](OC(=O)c3ccccc3)[C@]3(O)C[C@H](OC(=O)[C@H](O)[C@@H](NC(=O)c4ccccc4)c4ccccc4)C(C)=C1C3(C)C)[C@]1(OC(C)=O)CO[C@@H]1C[C@@H]2O [Taxol (Paclitaxel), Paclitaxel] | Sensitive | 62 | above-average activity | best drug in vitro | 
3 | N.N.[Cl][Pt][Cl] [Cisplatin] | Intermediate | 30 |  |  | 
4 | O=c1[nH]cc(F)c(=O)[nH]1 [Fluorouracil] | Intermediate | 20 |  |  | 
5 | COc1cccc2c1C(=O)c1c(O)c3c(c(O)c1C2=O)C[C@@](O)(C(=O)CO)C[C@@H]3O[C@H]1C[C@H](N)[C@H](O)[C@H](C)O1 [Doxorubicin] | Intermediate | 30 |  |  | 
6 | N.N.O=C([O-])C1(C(=O)[O-])CCC1.[Pt+2] [(4HC) Carboplatin, Carboplatin] | Resistant | 5 | poor activity |  | 
7 | O=P1(N(CCCl)CCCl)NCCCO1 (centres unmarked) [Cyclophosphamide] | Sensitive | 55 | above-average activity |  | exacerbation of pericardial effusion and atrial fibrillation, which spontaneously resolved
8 | CCC1=C[C@@H]2CN(C1)Cc1c([nH]c3ccccc13)[C@@](C(=O)OC)(c1cc3c(cc1OC)N(C)[C@H]1[C@@](O)(C(=O)OC)[C@H](OC(C)=O)[C@]4(CC)C=CCN5CC[C@]31[C@@H]54)C2 [Vinorelbine] | Intermediate | 30 |  |  | 
9 | GM-CSF: granulocyte macrophage colony stimulating factor, given as subcutaneous injections |  |  |  |  | increasing ascites and abdominal discomfort
